Test results published in patent publication US20250213550A1, “COMPOUNDS AND METHODS FOR TREATING INFLAMMATORY BOWEL DISEASE” (Gilead Sciences, Inc., priority 2023, published 2025).
Where two headings read alike, the source gives them in different places.

Test system: LPS-stimulated pERK in monocytes (TPL2 pathway)
Assay: Ex vivo LPS-stimulated pERK in monocytes of whole blood after Compound 1 dosing (flow cytometry)
Parameters: species or system human
Details: for inhibition at 75 mg: Homo sapiens, Monocyte, 75 mg QD multiple dose, read-out: pERK Signal, % Inhibition
Description: For Cohorts 1-4, whole blood PD sampling occurred relative to the dose of Compound 1 at the following time points: • Day 1: 0 pre-dose (≤5 min prior to dosing), 1, 2, 3, 4, 8, 12, 24 and 36 hours post-dose
For Cohorts 5-9, whole blood PD sampling occurred relative to the dose of Compound 1 at the following time points: • Day 1: 0 pre-dose (≤5 min prior to dosing), 1, 2, 3, 4, 8, 12, and 24 hours post-dose • Day 10: 0 pre-dose (≤5 min prior to dosing), 1, 2, 3, 4, 8, 12, 24, 36, 48, 72, 96, and 120 hours post-dose
Whole blood PD Samples were stimulated ex vivo with lipopolysaccharide (LPS) or phosphate buffered saline (PBS), and the phosphorylation of extracellular signal-related kinase (pERK) was detected in monocytes by flow cytometry.
Pharmacodynamic changes after single and multiple doses of Compound 1 were also investigated by monitoring, in whole blood samples, stimulated with either lipopolysaccharide (LPS) or PBS for 15 minutes at 37° C. Changes to the phosphorylation of extracellular signal-regulated kinases (pERK) was measured in monocytes by flow cytometry, defined as CD15−CD14+.
Pharmacodynamic parameters for Compound 1 were calculated as percent change in pERK signal relative to Day 1 pre-dose (baseline) for all evaluable participants.
Multiple Ascending Doses: Pharmacodynamic parameters after multiple doses of Compound 1 were also calculated as percent change in pERK signal relative to Day 1 pre-dose (baseline) for all evaluable participants.

Cn1ccc2c([C@@H](c3cn(C45CC(C4)C5)nn3)N(C(=O)OCOP(=O)(O)O)c3cc(Cl)c4ncc(C#N)c(NCC(C)(C)C)c4c3)cccc2c1=O [Compound 1]
median percent change in pERK relative to baseline (75 mg QD, Day 10, 12 hours post-last dose): −48.3% | median percent change in pERK relative to baseline (75 mg QD, Day 10, 24 hours post last dose): −39.8% | median change in pERK relative to baseline (75 mg single dose, 3 hours post-dose): −86.8% | median change in pERK relative to baseline (75 mg single dose, 12 hours post-dose): −51.3% | pERK Signal, % Inhibition (75 mg single dose, Day 1 1 hour, mean (SD)): 56.4 (13.04) % | pERK Signal, % Inhibition (75 mg single dose, Day 1 1 hour, median): 62.9% | pERK Signal, % Inhibition (75 mg single dose, Day 1 3 hours, mean (SD)): 82.7 (10.42) % | pERK Signal, % Inhibition (75 mg single dose, Day 1 3 hours, median): 86.8% | pERK Signal, % Inhibition (75 mg single dose, Day 1 12 hours, mean (SD)): 52.2 (6.53) % | pERK Signal, % Inhibition (75 mg single dose, Day 1 12 hours, median): 51.3% | pERK Signal, % Inhibition (75 mg single dose, Day 1 24 hours, mean (SD)): 33.6 (4.73) % | pERK Signal, % Inhibition (75 mg single dose, Day 1 24 hours, median): 33.6% | median percent change in pERK relative to baseline (300 mg QD, Day 10, 12 hours post-last dose): −95.7% | median percent change in pERK relative to baseline (300 mg QD, Day 10, 24 hours post last dose): −91.6% | median change in pERK relative to baseline (300 mg single dose, 3 hours post-dose): −95.6% | median change in pERK relative to baseline (300 mg single dose, 12 hours post-dose): −76.6% | pERK Signal, % Inhibition (300 mg single dose, Day 1 1 hour, mean (SD)): 32.2 (35.11) % | pERK Signal, % Inhibition (300 mg single dose, Day 1 1 hour, median): 29.1% | pERK Signal, % Inhibition (300 mg single dose, Day 1 3 hours, mean (SD)): 93.4 (5.08) % | pERK Signal, % Inhibition (300 mg single dose, Day 1 3 hours, median): 95.6% | pERK Signal, % Inhibition (300 mg single dose, Day 1 12 hours, mean (SD)): 76.0 (7.04) % | pERK Signal, % Inhibition (300 mg single dose, Day 1 12 hours, median): 76.7% | pERK Signal, % Inhibition (300 mg single dose, Day 1 24 hours, mean (SD)): 66.4 (2.19) % | pERK Signal, % Inhibition (300 mg single dose, Day 1 24 hours, median): 65.3% | median percent change in pERK relative to baseline (600 mg BID, Day 10, 12 hours post-last dose): −100.2% | median percent change in pERK relative to baseline (600 mg BID, Day 10, 24 hours post last dose): −101.5% | median percent change in pERK relative to baseline (900 mg QD, Day 10, 12 hours post-last dose): −96.7% | median percent change in pERK relative to baseline (900 mg QD, Day 10, 24 hours post last dose): −98.5% | median change in pERK relative to baseline (900 mg single dose, 3 hours post-dose): −99.9% | median change in pERK relative to baseline (900 mg single dose, 12 hours post-dose): −92.1% | pERK Signal, % Inhibition (900 mg single dose, Day 1 1 hour, mean (SD)): 74.5 (38.94) % | pERK Signal, % Inhibition (900 mg single dose, Day 1 1 hour, median): 97.9% | pERK Signal, % Inhibition (900 mg single dose, Day 1 3 hours, mean (SD)): 99.8 (2.98) % | pERK Signal, % Inhibition (900 mg single dose, Day 1 12 hours, mean (SD)): 92.7 (3.10) % | pERK Signal, % Inhibition (900 mg single dose, Day 1 12 hours, median): 92.1% | pERK Signal, % Inhibition (900 mg single dose, Day 1 24 hours, mean (SD)): 83.6 (7.00) % | pERK Signal, % Inhibition (900 mg single dose, Day 1 24 hours, median): 85.8% | median change in pERK relative to baseline (1500 mg single dose, 3 hours post-dose): −99% | median change in pERK relative to baseline (1500 mg single dose, 12 hours post-dose): −96.3% | pERK Signal, % Inhibition (1500 mg single dose, Day 1 1 hour, mean (SD)): 74.8 (45.62) % | pERK Signal, % Inhibition (1500 mg single dose, Day 1 1 hour, median): 97.3% | pERK Signal, % Inhibition (1500 mg single dose, Day 1 3 hours, mean (SD)): 92.8 (16.61) % | pERK Signal, % Inhibition (1500 mg single dose, Day 1 3 hours, median): 99.0% | pERK Signal, % Inhibition (1500 mg single dose, Day 1 12 hours, mean (SD)): 93.0 (6.35) % | pERK Signal, % Inhibition (1500 mg single dose, Day 1 12 hours, median): 96.3% | pERK Signal, % Inhibition (1500 mg single dose, Day 1 24 hours, mean (SD)): 94.4 (2.50) % | pERK Signal, % Inhibition (1500 mg single dose, Day 1 24 hours, median): 94.2% | time of maximum PD effect (Day 10 of multiple doses, post-last dose): 2 to 4 h | inhibition at 75 mg (Day 1 1 hour, mean (SD)): 47.9% | inhibition at 75 mg (Day 1 1 hour, median): 44.9% | inhibition at 75 mg (Day 1 3 hours, mean (SD)): 67.5% | inhibition at 75 mg (Day 1 3 hours, median): 79.6% | inhibition at 75 mg (Day 1 12 hours, mean (SD)): 26.1% | inhibition at 75 mg (Day 1 12 hours, median): 32.4% | inhibition at 75 mg (Day 10 1 hour, mean (SD)): 62.2% | inhibition at 75 mg (Day 10 1 hour, median): 62.7% | inhibition at 75 mg (Day 10 3 hours, mean (SD)): 85.4% | inhibition at 75 mg (Day 10 3 hours, median): 88.3% | inhibition at 75 mg (Day 10 12 hours, mean (SD)): 43.5% | inhibition at 75 mg (Day 10 12 hours, median): 48.3% | inhibition at 75 mg (Day 10 24 hours, mean (SD)): 12.6% | inhibition at 75 mg (Day 10 24 hours, median): 39.8%
